We go through 21 substances from patent publication US20210189342A1, “COMPOSITIONS AND METHODS FOR MODULATING MONOCYTE AND MACROPHAGE INFLAMMATORY PHENOTYPES AND IMMUNOTHERAPY USES THEREOF” (Verseau Therapeutics, Inc., priority 2018, published 2021).

In one data set the test system is CLEC7A. Kind of data set: siRNA dose response, CLEC7A mRNA knockdown, Dual-Glo Luciferase Assay. It is filed as cell-based, human. The note with it: Hepa1-6 + reporter plasmid, 24 hr. As to the method:
(§1) Dose response curves for siRNAs were generated in vitro using a variety of cell lines according to Table 4.
(§2) Briefly, cells were seeded in 96-well plates and reverse transfected with siRNA, Lipofectamine® 2000 (0.5 uL/well; ThermoFisher), and, in some cases, a reporter plasmid (50 ng/well). The reporter plasmid (psiCHECK™-2, Promega) encoded both firefly luciferase and the gene of interest fused to renilla luciferase; silencing of the gene of interest results in proportional silencing of renilla luciferase but leaves firefly luciferase unaffected as an internal control.
(§3) After 24 hr incubation at 37° C., mRNA knockdown was measured using an endpoint assay. For targets without a reporter plasmid, a branched DNA (bDNA) assay was performed according to the manufacturer's instructions (QuantiGene® Singleplex Gene Expression Assay, ThermoFisher) to measure both the target gene and GAPDH (housekeeping gene) mRNA. Data are plotted as siRNA concentration (nM) vs. remaining mRNA (ratio of target gene to GAPDH, normalized to mock siRNA-transfected cells). For targets with a reporter plasmid, a Dual-Glo® Luciferase Assay was performed according to the manufacturer's instructions (Promega) to measure firefly and renilla luciferase expression. Data are plotted as siRNA concentration (nM) vs. remaining mRNA (ratio of renilla to firefly luminescence, normalized to mock siRNA-transfected cells).
(§4) For all dose response curves, a 4-parameter logistic model was applied to determine the IC50 of each siRNA sequence (Table 5 and FIG. 2). Data shown in Table 5 and FIG. 2 represent the mean of quadruplicates, +/−standard deviation.
“XD-10561: siRNA targeting CLEC7A (sense 5'-ggucAAGAuAAAugcAGAAdTsdT-3'; antisense 5'-UUCUGcAUUaAUCUUAACCdTsdT-3'; RNA with 2'-O-methyl and phosphorothioate modifications, case key not given here, as printed in the source, key not given here)”: the IC50 came out at 0.009 nM.
The same measure, in the same setting: as for “XD-10562: siRNA targeting CLEC7A (sense 5'-agGuAGGcuAGuAuuAuuudTsdT-3'; antisense 5'-AAAuAAuACuAGCCuACCUdTsdT-3'; as printed in the source, key not given here)”, the figure is 0.033 nM; as for “XD-10564: siRNA targeting CLEC7A (sense 5'-ggGuAAGccAuAAgcGaaudTsdT-3'; antisense 5'-AUUCGCUuAUGGCUuACCCdTsdT-3'; RNA with 2'-O-methyl and phosphorothioate modifications, case key not given here, as printed in the source, key not given here)”, below 0.004 nM.
With “XD-10565: siRNA targeting CLEC7A (sense 5'-ccAuAAGcGAAucuuAAuudTsdT-3'; antisense 5'-AAUuAAGAUUCGCUuAUGGdTsdT-3'; RNA with 2'-O-methyl and phosphorothioate modifications, case key not given here, as printed in the source, key not given here)”, the IC50 is below 0.004 nM.
As to “XD-10566: siRNA targeting CLEC7A (sense 5'-ugccAuAucucuAauAGAAdTsdT-3'; antisense 5'-UUCuAUuAGAGAuAUGGcAdTsdT-3'; RNA with 2'-O-methyl and phosphorothioate modifications, case key not given here, as printed in the source, key not given here)”, the IC50 was 0.006 nM.
The same measure, in the same setting: under “XD-10567: siRNA targeting CLEC7A (sense 5'-gccuAGAAucuuGuAuAAudTsdT-3'; antisense 5'-AUuAuAcAAGAUUCuAGGCdTsdT-3'; as printed in the source, key not given here)” stands 0.023 nM.
“XD-10568: siRNA targeting CLEC7A (sense 5'-ccuAGAAucuuGuauAAuAdTsdT-3'; antisense 5'-uAUuAuAcAAGAUUCuAGGdTsdT-3'; as printed in the source, key not given here)”: the IC50 was 0.016 nM.
Regarding “XD-10569: siRNA targeting CLEC7A (sense 5'-gcucucAuAGGAAaGuuuudTsdT-3'; antisense 5'-AAAACUUUCCuAUGAGAGCdTsdT-3'; as printed in the source, key not given here)”, the IC50 worked out at 0.016 nM.

The subject of another data set is LILRB2. Kind of data set: siRNA dose response, LILRB2 mRNA knockdown, Dual-Glo Luciferase Assay. It counts as cell-based, human. The conditions noted are these: Hepa1-6 + reporter plasmid, 24 hr. Here is the method: as §1, §2, §3, §4
For the substance “XD-10591: siRNA targeting LILRB2 (sense 5'-ggAuAcGAccAGAgcuugsa-3'; antisense 5'-dTCAAGCUCUGGUCGuAUccusu-3'; RNA with 2'-O-methyl and phosphorothioate modifications, case key not given here, as printed in the source, key not given here)”, the IC50 amounted to 0.073 nM.
The same measure, in the same setting: as for “XD-10592: siRNA targeting LILRB2 (sense 5'-gcGAuAUGGcuGucAGuasa-3'; antisense 5'-dTUACUGAcAGCcAUAUCGCusu-3'; RNA with 2'-O-methyl and phosphorothioate modifications, case key not given here, as printed in the source, key not given here)”, the figure is 0.459 nM; as for “XD-10593: siRNA targeting LILRB2 (sense 5'-cuAuGGUuAuGAcuuGAasa-3'; antisense 5'-dTUUcAAGUcAuAACcAuAGusu-3'; RNA with 2'-O-methyl and phosphorothioate modifications, case key not given here, as printed in the source, key not given here)”, 0.136 nM; as for “XD-10594: siRNA targeting LILRB2 (sense 5'-gguuAuGAcuuGAccucusa-3'; antisense 5'-dTAGAGUUcAAGUcAuAACCusu-3'; RNA with 2'-O-methyl and phosphorothioate modifications, case key not given here, as printed in the source, key not given here)”, 0.089 nM.
Still for that read-out and setting: as for “XD-10597: siRNA targeting LILRB2 (sense 5'-cccAcuCcGucuAaGAucsa-3'; antisense 5'-dTGAUCUuAGACGGAGUGGGusu-3'; RNA with 2'-O-methyl and phosphorothioate modifications, case key not given here, as printed in the source, key not given here)”, the figure is 0.059 nM; as for “XD-10598: siRNA targeting LILRB2 (sense 5'-ccAcucCGucuAAgAucasa-3'; antisense 5'-dTUGAUCUuAGACGGAGUGGusu-3'; as printed in the source, key not given here)”, 0.109 nM; as for “XD-10599: siRNA targeting LILRB2 (sense 5'-cacuccGucuAAGaucAasa-3'; antisense 5'-dTUUGAUCUuAGACGGAGUGusu-3'; RNA with 2'-O-methyl and phosphorothioate modifications, case key not given here, as printed in the source, key not given here)”, 0.127 nM.

Another data set concerns IGSF6. Kind of data set: siRNA dose response, IGSF6 mRNA knockdown, Dual-Glo Luciferase Assay. It counts as cell-based, human. The note with it: Hepa1-6 + reporter plasmid, 24 hr. Here is the method:
as §1, §2, §3, §4
Take “XD-09642: siRNA targeting IGSF6 (sense 5'-gaAGcGAGAGcuAaAcAGAdTsdT-3'; antisense 5'-UCUGUUuAGCUCUCGCUUCdTsdT-3'; RNA with 2'-O-methyl and phosphorothioate modifications, case key not given here, as printed in the source, key not given here)”: the IC50 is 0.035 nM.
The same measure, in the same setting: as for “XD-09643: siRNA targeting IGSF6 (sense 5'-guGcucGGcGuAuuuuucAdTsdT-3'; antisense 5'-UGAAAAAuACGCCGAGcACdTsdT-3'; as printed in the source, key not given here)”, the figure is 0.077 nM; as for “XD-09645: siRNA targeting IGSF6 (sense 5'-agAAcuAuAccAuaAGAGAdTsdT-3'; antisense 5'-UCUCUuAUGGuAuAGUUCUdTsdT-3'; as printed in the source, key not given here)”, 0.034 nM.
Still for that read-out and setting: under “XD-09646: siRNA targeting IGSF6 (sense 5'-ccAuAAGAGAcAuguGGAAdTsdT-3'; antisense 5'-UUCcAcAUGUCUCUuAUGGdTsdT-3'; RNA with 2'-O-methyl and phosphorothioate modifications, case key not given here, as printed in the source, key not given here)” stands 0.01 nM.
On to “XD-09647: siRNA targeting IGSF6 (sense 5'-ggccAuAGAAAcGuuuuAAdTsdT-3'; antisense 5'-UuAAAACGUUUCuAUGGCCdTsdT-3'; as printed in the source, key not given here)”, for which the IC50 is 0.069 nM.
The same measure, in the same setting: as for “XD-09648: siRNA targeting IGSF6 (sense 5'-ccAuAGAAAcGuuuuAAuudTsdT-3'; antisense 5'-AAUuAAAACGUUUCuAUGGdTsdT-3'; as printed in the source, key not given here)”, the figure is 0.503 nM.
